# In patent publication US6117878A, “8-phenyl- or 8-cycloalkyl xanthine antagonists of A2B human adenosine receptors” (priority 1998, dated 2000):
# “Also recorded” adds a separate entry of the source.
# Key:
# [1] = target: T1, recombinant human A1 adenosine receptors (Homo sapiens, UniProt P30542); test: Competition binding screen, A1 (Table 1)
# T1 construct: expressed in transfected cells
# T1 sequence (P30542 1-326): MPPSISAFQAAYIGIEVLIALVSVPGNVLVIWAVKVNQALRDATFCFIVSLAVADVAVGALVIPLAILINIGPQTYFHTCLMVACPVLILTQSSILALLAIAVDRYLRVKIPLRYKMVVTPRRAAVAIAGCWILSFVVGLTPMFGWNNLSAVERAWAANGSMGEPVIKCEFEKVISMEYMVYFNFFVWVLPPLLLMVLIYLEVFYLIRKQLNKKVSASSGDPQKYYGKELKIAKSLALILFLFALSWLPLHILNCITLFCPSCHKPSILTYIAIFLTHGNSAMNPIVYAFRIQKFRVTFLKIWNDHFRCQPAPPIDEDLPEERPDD
# From the text: (§1) A series of compounds was screened to identify potent A2B selective antagonists. This was done in competition binding assays using recombinant human A1, A2A, A2B or A3 adenosine receptors, similar to that illustrated in FIGS. 2A and 2B.
# [2] = target: T2, recombinant human A2B adenosine receptors (Homo sapiens, UniProt P29275); test: Calcium mobilization in HEK-293 cells transfected with recombinant human A2B adenosine receptors (FURA); type: cell-based; set-up: expressed in transfected cells; host or cells: cells expressing the recombinant receptor
# T2 sequence (P29275 1-332): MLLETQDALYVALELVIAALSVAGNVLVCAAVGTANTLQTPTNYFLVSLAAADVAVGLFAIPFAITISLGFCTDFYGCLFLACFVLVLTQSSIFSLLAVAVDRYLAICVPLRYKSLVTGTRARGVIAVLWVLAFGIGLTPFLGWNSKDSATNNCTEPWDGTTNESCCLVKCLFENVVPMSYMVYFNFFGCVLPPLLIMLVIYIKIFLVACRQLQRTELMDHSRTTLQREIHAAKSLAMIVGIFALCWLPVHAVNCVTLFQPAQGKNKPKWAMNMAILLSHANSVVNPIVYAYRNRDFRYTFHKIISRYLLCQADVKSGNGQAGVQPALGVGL
# Protocol: The activation of the phospholipase C pathway leads to intracellular calcium mobilization.
# Calcium mobilization was measured in cells preloaded with FURA.
# adenosine receptors = details: cited from earlier work
# [3] = target: T2, recombinant human A2B adenosine receptors; test: Competition for [3H]DPX binding to rhA2B adenosine receptors (Example 2); set-up: expressed in transfected cells; host or cells: cells expressing the recombinant receptor
# [4] = target: T2, recombinant human A2B adenosine receptors; test: IP3 generation in HEK 293 cells transfected with recombinant human A2B adenosine receptors
# [5] = target: T3, recombinant human A3 adenosine receptors (Homo sapiens, UniProt P0DMS8); test: Competition radioligand binding to rhA3 adenosine receptors (Example 2); details: other subtypes than A2B; FIG. 2 and Table 1
# T3 construct: expressed in transfected cells; host or cells: cells expressing the recombinant receptor
# T3 sequence (P0DMS8 1-318): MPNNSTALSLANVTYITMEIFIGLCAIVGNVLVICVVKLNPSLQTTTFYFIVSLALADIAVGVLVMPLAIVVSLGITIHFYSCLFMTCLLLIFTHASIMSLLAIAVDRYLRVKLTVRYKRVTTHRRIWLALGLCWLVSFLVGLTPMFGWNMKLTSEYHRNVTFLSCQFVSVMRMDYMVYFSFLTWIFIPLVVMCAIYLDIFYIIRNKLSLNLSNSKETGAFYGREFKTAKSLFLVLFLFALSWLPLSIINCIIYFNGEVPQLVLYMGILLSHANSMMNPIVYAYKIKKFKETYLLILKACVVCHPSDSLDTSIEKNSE
# [6] = target: T2, recombinant human A2B adenosine receptors; test: Competition binding screen, A2B (Table 1); set-up: expressed in transfected cells; host or cells: cells expressing the recombinant receptor
# From the text: (§2) This was done in competition binding assays using recombinant human A1, A2A, A2B or A3 adenosine receptors, similar to that illustrated in FIGS. 2A and 2B.
# [7] = target: T3, recombinant human A3 adenosine receptors; test: Competition binding screen, A3 (Table 1)
# From the text: as §1
# [8] = target: T4, recombinant human A2A adenosine receptors (Homo sapiens, UniProt P29274); test: Competition binding screen, A2A (Table 1)
# T4 construct: expressed in transfected cells
# From the text: as §2
# human HMC-1 mast cells [9] = test: Cyclic AMP accumulation in HMC-1 mast cells (radioimmunoassay); type: cell-based; details: FIG. 1B
# Protocol: Functional Responses Of Human HMC-1 Mast Cells to NECA and IB-MECA
# In tests as described in "Canine Mast Cell Adenosine Receptors: Cloning and Expression of the A3 Receptor and Evidence that Degranulation is Mediated by the A2B Receptor," Molecular Pharmacology, 52:1-15 (1997) to, Auchampapch et al., that reference being incorporated herein by reference, intact cells were treated with the A3-selective agonist IB-MECA and the nonselective agonist NECA.
# FIGS. 1A and 1B show (A) Intracellular Ca^2+ accumulation measured in cells pretreated with the Ca^2+ -sensitive fluorescent reporter, FURA and (B) Cyclic AMP accumulation measured by radioimmunoassay. The results are typical of triplicate experiments.
# [10] = target: T5, rhA2B adenosine receptors (Homo sapiens, UniProt P29275); test: NECA-stimulated cyclic AMP accumulation in HEK 293 cells transfected with rhA2B adenosine receptors, Schild analysis; type: cell-based; details: cAMP, cells expressing rhA2B
# T5 construct: expressed in transfected cells; host or cells: HEK 293 cells, stably transfected
# T5 sequence (P29275 1-332): T2 sequence (P29275 1-332)
# From the text: Agonists were used to modulate cAMP in HEK 293 cells stably transfected the rhA2B adenosine receptors or rhA3 adenosine receptors.
# human HMC-1 mast cells [11] = test: Intracellular Ca2+ accumulation in HMC-1 mast cells (FURA); type: cell-based; details: FIG. 1A
# T4 sequence (P29274 whole entry): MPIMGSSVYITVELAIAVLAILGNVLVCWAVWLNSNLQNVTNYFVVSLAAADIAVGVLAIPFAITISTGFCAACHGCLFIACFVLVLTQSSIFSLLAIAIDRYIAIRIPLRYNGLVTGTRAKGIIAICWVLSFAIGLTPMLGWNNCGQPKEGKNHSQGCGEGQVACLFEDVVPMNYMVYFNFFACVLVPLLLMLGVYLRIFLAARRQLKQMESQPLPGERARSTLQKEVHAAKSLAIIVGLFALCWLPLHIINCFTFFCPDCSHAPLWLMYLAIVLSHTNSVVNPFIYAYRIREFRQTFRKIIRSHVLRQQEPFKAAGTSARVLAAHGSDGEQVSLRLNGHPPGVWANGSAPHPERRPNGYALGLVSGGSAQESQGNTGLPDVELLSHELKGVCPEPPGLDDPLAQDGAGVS
Ki [6] [nM],Ki [7] [nM],Ki [8] [nM],Compound,Ki [1] [nM],Block of Ca2+ response induced by 1 μM NECA ([2]; 100 μM antagonist),Binding to adenosine receptors (literature) (adenosine receptors; Lunell et al.),"Block of adenosine receptors (literature) (adenosine receptors; enprofylline: therapeutic concentration range of 20-50 uM, examined at A1 and A2A only)","Affinity for human A2B versus human A3 adenosine receptors ([3]; competition binding, FIGS. 2A and 2B)","Block of recombinant human A2B adenosine receptors ([3]; therapeutic concentration range of 20-50 μM, FIG. 2 and Table 1)",Block of increase in IP3 produced by 10 μM NECA ([4]; 250 μM antagonist),Antagonism of other adenosine receptor subtypes [5],Stimulation of cyclic AMP accumulation (human HMC-1 mast cells [9]; worded as canine mast cells),Cyclic AMP accumulation (human HMC-1 mast cells [9]; human mast cell line HMC-1),Increase in intracellular Ca2+ content ([2]; human A2B transfected cells),Functional response to agonist [10],"Increase in IP3 formation ([4]; NECA at 10 μM, rhA2B transfected HEK 293) [fold]",Stimulation of calcium mobilization (human HMC-1 mast cells [11]; worded as canine mast cells),Intracellular Ca2+ accumulation / calcium mobilization (human HMC-1 mast cells [11]; human mast cell line HMC-1)
–,–,–,CCCn1c(=O)[nH]c(=O)c2[nH]cnc21 [enprofylline],156000,totally blocks,bind weakly to adenosine receptors,found not to block adenosine receptors,higher affinities for human A2B adenosine receptors than for human A3 adenosine receptors,blocks recombinant human A2B adenosine receptors,able to block the increase in IP3,much weaker antagonist of other adenosine receptor subtypes,–,–,–,–,–,–,–
198 ± 52,922 ± 399,1520 ± 797,O=C(O)C=Cc1ccc(-c2nc3c([nH]2)c(=O)n(CC2CCCCC2)c(=O)n3CC2CCCCC2)cc1 [BW-A493],4980 ± 553,–,–,–,–,–,–,–,–,–,–,–,–,–,–
–,–,–,"CCNC(=O)[C@H]1O[C@@H](n2cnc3c(N)ncnc32)[C@H](O)[C@@H]1O [NECA, 5-N-ethylcarboxamidoadenosine]",–,–,–,–,–,–,–,–,stimulates canine mast cells to mobilize calcium and to accumulate cyclic AMP,stimulates human mast cells to mobilize calcium and to accumulate cyclic AMP; also recorded: causes intracellular Ca^2+ and cyclic AMP accumulation,dose-dependent increase in intracellular Ca^2+ content,dose-dependent functional response,3.5,stimulates canine mast cells to mobilize calcium,stimulates human mast cells to mobilize calcium; also recorded: causes intracellular Ca^2+ and cyclic AMP accumulation
